Measurements reported in patent USRE49735E1 (BRISTOL-MYERS SQUIBB COMPANY, priority 2010, dated 2023).
Several values for one entry are separate records, joined by “and”; a condition that tells them apart may be missing. Equal values may be shown once.

biological target: human mGluR5A (Homo sapiens, UniProt P41594); assay: mGluR5 FLIPR Assay; format: cell-based; details: positive modulator activity; HEK293 (ZF) cells with human mGluR5A and rat GLAST; Ca++ response to ~EC10 glutamate
Sequence (P41594 21-1180 isoform P41594-2): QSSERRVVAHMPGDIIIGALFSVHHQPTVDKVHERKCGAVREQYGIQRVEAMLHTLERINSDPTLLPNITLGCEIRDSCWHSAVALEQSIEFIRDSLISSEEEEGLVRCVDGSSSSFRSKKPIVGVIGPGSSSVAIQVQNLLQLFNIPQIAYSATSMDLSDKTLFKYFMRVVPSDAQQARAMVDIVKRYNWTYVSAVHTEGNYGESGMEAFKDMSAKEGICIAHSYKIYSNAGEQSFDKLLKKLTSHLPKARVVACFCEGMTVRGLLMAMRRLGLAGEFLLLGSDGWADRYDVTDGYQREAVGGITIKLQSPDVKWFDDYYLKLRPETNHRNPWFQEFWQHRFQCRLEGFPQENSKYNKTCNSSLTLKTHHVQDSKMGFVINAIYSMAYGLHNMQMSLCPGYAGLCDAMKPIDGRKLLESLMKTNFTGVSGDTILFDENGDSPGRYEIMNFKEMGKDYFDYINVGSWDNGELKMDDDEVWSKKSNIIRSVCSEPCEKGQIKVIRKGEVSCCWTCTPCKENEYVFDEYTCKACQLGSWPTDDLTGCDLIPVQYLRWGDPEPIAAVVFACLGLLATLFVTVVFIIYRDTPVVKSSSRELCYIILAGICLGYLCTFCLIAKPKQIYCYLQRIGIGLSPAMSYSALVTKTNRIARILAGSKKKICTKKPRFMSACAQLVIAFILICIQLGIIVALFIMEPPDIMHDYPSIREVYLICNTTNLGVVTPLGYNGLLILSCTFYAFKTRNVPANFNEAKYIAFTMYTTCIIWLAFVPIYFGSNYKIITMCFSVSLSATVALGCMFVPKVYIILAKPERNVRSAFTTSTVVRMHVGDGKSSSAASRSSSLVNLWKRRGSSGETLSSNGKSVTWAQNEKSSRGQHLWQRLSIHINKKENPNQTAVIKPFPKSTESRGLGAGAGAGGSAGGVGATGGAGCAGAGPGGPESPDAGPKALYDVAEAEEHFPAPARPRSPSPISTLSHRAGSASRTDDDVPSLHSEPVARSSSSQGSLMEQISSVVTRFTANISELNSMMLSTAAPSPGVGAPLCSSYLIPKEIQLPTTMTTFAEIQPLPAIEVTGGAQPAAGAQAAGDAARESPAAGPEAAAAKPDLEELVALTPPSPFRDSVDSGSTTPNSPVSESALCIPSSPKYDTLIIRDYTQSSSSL

Row | EC50 | SMILES
1 | < 100 nM | C[C@]1(c2cncc(C#Cc3ccccc3)c2)NC(=O)O[C@@H]1c1ccc(F)cc1 [Example 219]
2 | 100 to 1000 nM | C[C@@]1(c2cncc(C#Cc3ccccc3)c2)NC(=O)O[C@H]1c1ccc(F)cc1 [Example 220]
3 | > 1000 nM | C[C@@]1(c2cccc(F)c2)OC(=O)N[C@H]1c1cncc(C#Cc2ccccc2)c1 [Example 221]
4 | < 100 nM | C[C@]1(c2cccc(F)c2)OC(=O)N[C@@H]1c1cncc(C#Cc2ccccc2)c1 [Example 222]
5 | 100 to 1000 nM | C[C@]1(c2cccc(F)c2)OC(=O)N[C@H]1c1cncc(C#Cc2ccccc2)c1 [Example 223]
6 | > 1000 nM | C[C@@]1(c2cccc(F)c2)OC(=O)N[C@@H]1c1cncc(C#Cc2ccccc2)c1 [Example 224]
7 | > 1000 nM | C[C@@]1(c2cncc(C#Cc3ccccc3)c2)NC(=O)O[C@@H]1c1ccccc1 [Example 225]
8 | < 100 nM | C[C@]1(c2cncc(C#Cc3ccccc3)c2)NC(=O)O[C@H]1c1ccccc1 [Example 226]
9 | < 100 nM | C[C@]1(c2ccccc2)OC(=O)N[C@@H]1c1cncc(C#Cc2ccccc2)c1 [Example 227]
10 | > 1000 nM | C[C@@]1(c2ccccc2)OC(=O)N[C@@H]1c1cncc(C#Cc2ccccc2)c1 [Example 228]
11 | < 100 nM | C[C@]1(c2cncc(C#Cc3ncccc3F)c2)NC(=O)O[C@@H]1c1ccccc1 [Example 229]
12 | > 1000 nM | C[C@@]1(c2cncc(C#Cc3ncccc3F)c2)NC(=O)O[C@H]1c1ccccc1 [Example 230]
13 | < 100 nM | O=C1N[C@H](c2cccc(C#Cc3ccccc3)c2)[C@@H](c2ccccn2)O1 [Example 231]
14 | > 1000 nM | O=C1N[C@@H](c2cccc(C#Cc3ccccc3)c2)[C@H](c2ccccn2)O1 [Example 232]
15 | < 100 nM | O=C1N[C@H](c2cccc(C#Cc3ccccn3)c2)[C@@H](c2ccncc2)O1 [Example 233]
16 | < 100 nM and 2.7 nM | O=C1N[C@H](c2cccc(C#Cc3ccccc3)c2)[C@@H](c2ccncc2)O1 [Example 234]
17 | 100 to 1000 nM and 211 nM | O=C1N[C@H](c2cccc(C#Cc3cccnc3)c2)[C@@H](c2ccncc2)O1 [Example 235]
18 | > 1000 nM | O=C1N[C@@H](c2cccc(C#Cc3cccnc3)c2)[C@H](c2ccncc2)O1 [Example 236]
19 | 100 to 1000 nM | O=C1N[C@H](c2cccc(C#Cc3cncc(F)c3)c2)[C@@H](c2cccnc2)O1 [Example 237]
20 | > 1000 nM | O=C1N[C@@H](c2cccc(C#Cc3ccccc3)c2)[C@H](c2ccncn2)O1 [Example 238]
21 | < 100 nM | O=C1N[C@H](c2cccc(C#Cc3ccccc3)c2)[C@@H](c2ccncn2)O1 [Example 239]
22 | > 1000 nM | O=C1N[C@@H](c2cccc(C#Cc3cccnc3)c2)[C@H](c2ccncn2)O1 [Example 240]
23 | > 1000 nM | O=C1N[C@H](c2cccc(C#Cc3cccnc3)c2)[C@@H](c2ccncn2)O1 [Example 241]
24 | > 1000 nM | O=C1N[C@@H](c2cccc(C#Cc3ccccc3)c2)[C@H](c2cccnn2)O1 [Example 242]
25 | 100 to 1000 nM and 272 nM | O=C1N[C@H](c2cccc(C#Cc3ccccc3)c2)[C@@H](c2cccnn2)O1 [Example 243]
26 | > 1000 nM | O=C1N[C@H](c2cccc(C#Cc3cncc(F)c3)c2)[C@@H](c2ccncn2)O1 [Example 244]

Row | EC50 | SMILES
27 | > 1000 nM | O=C1N[C@@H](c2cccc(C#Cc3ccccc3)c2)[C@H](c2cnccn2)O1 [Example 245]
28 | > 1000 nM | O=C1N[C@H](c2cccc(C#Cc3ccccc3)c2)[C@@H](c2cnccn2)O1 [Example 246]
29 | > 1000 nM | O=C1N[C@H](c2cccc(C#Cc3ccccc3)c2)[C@H](c2cnccn2)O1 [Example 247]
30 | > 1000 nM | O=C1N[C@@H](c2cccc(C#Cc3cccnc3)c2)[C@H](c2cnccn2)O1 [Example 248]
31 | > 1000 nM | O=C1N[C@H](c2cccc(C#Cc3cccnc3)c2)[C@@H](c2cnccn2)O1 [Example 249]
32 | > 1000 nM | O=C1N[C@@H](c2cccc(C#Cc3cccnc3)c2)[C@@H](c2cnccn2)O1 [Example 250]
33 | > 1000 nM | O=C1N[C@H](c2cccc(C#Cc3cccnc3)c2)[C@H](c2cnccn2)O1 [Example 251]
34 | > 1000 nM | O=C1N[C@H](c2ccnc(C#Cc3cccc(F)c3)c2)[C@@H](c2cccnc2)O1 [Example 252]
35 | > 1000 nM | O=C1N[C@H](c2ccnc(C#Cc3cncc(F)c3)c2)[C@@H](c2cccnc2)O1 [Example 253]
36 | > 1000 nM | O=C1N[C@H](c2ccnc(C#Cc3ccccc3)c2)[C@@H](c2cccnc2)O1 [Example 254]
37 | > 1000 nM | N#Cc1cccc(C#Cc2cc([C@H]3NC(=O)O[C@@H]3c3cccnc3)ccn2)c1 [Example 255]
38 | < 100 nM | O=C1N[C@H](c2cncc(C#Cc3cncc(F)c3)c2)[C@@H](c2cccc(F)c2)O1 [Example 256]
39 | 100 to 1000 nM and 164 nM | N#Cc1cncc(C#Cc2cncc([C@H]3NC(=O)O[C@@H]3c3cccc(F)c3)c2)c1 [Example 257]
40 | < 100 nM | O=C1N[C@H](c2ccnc(C#Cc3cccnc3)c2)[C@@H](c2cccc(F)c2)O1 [Example 258]
41 | < 100 nM and 1.9 nM | O=C1N[C@H](c2ccnc(C#Cc3ccccc3)c2)[C@@H](c2cccc(F)c2)O1 [Example 259]
42 | > 1000 nM | COc1cccc([C@H]2OC(=O)N[C@@H]2c2cccc(C#Cc3ccc(SC)cc3)c2)c1 [Example 260]
43 | > 1000 nM | COc1cccc([C@H]2OC(=O)N[C@@H]2c2cccc(C#Cc3ccc(C(C)=O)cc3)c2)c1 [Example 261]
44 | 100 to 1000 nM | COc1cccc([C@H]2OC(=O)N[C@@H]2c2cccc(C#Cc3cccc(Cl)c3)c2)c1 [Example 262]
45 | > 1000 nM | COc1cccc([C@H]2OC(=O)N[C@@H]2c2cccc(C#Cc3ccc(Cl)cc3)c2)c1 [Example 263]
46 | 100 to 1000 nM | COc1cccc([C@H]2OC(=O)N[C@@H]2c2cccc(C#Cc3ccc(C#N)cc3)c2)c1 [Example 264]
47 | 100 to 1000 nM | COc1cccc([C@H]2OC(=O)N[C@@H]2c2cccc(C#Cc3ccccc3N)c2)c1 [Example 265]
48 | 100 to 1000 nM | COC(=O)c1ccc(C#Cc2cccc([C@H]3NC(=O)O[C@@H]3c3cccc(OC)c3)c2)cc1 [Example 266]
49 | 100 to 1000 nM | COC(=O)c1cccc(C#Cc2cccc([C@H]3NC(=O)O[C@@H]3c3cccc(OC)c3)c2)c1 [Example 267]
50 | > 1000 nM | COc1cccc([C@H]2OC(=O)N[C@@H]2c2cccc(C#Cc3ccc(OC(F)(F)F)cc3)c2)c1 [Example 268]
51 | > 1000 nM | COc1cccc([C@H]2OC(=O)N[C@@H]2c2cccc(C#Cc3cccc(OC(F)(F)F)c3)c2)c1 [Example 269]
52 | > 3000 nM | O=C1N[C@H](c2nccc(C#Cc3ccccc3)n2)[C@@H](c2cccc(F)c2)O1 [Example 273]

Row | EC50 | SMILES
53 | > 1000 nM | O=C1N[C@@H](c2nccc(C#Cc3ccccc3)n2)[C@H](c2cccc(F)c2)O1 [Example 274]
54 | < 100 nM | O=C1N[C@H](c2ccnc(C#Cc3ccccc3)n2)[C@@H](c2cccc(F)c2)O1 [Example 275]
55 | 100 to 1000 nM and 468 nM | O=C1N[C@@H](c2ccnc(C#Cc3ccccc3)n2)[C@H](c2cccc(F)c2)O1 [Example 276]
56 | < 100 nM and 21.5 nM | O=C1N[C@H](c2cncc(C#Cc3ccccc3)c2)[C@@H](c2cccc(F)c2F)O1 [Example 277]
57 | > 1000 nM | O=C1N[C@H](c2cncc(C#Cc3ccccc3)c2)[C@@H](c2c(F)cccc2F)O1 [Example 278]
58 | < 100 nM | O=C1N[C@H](c2cncc(C#Cc3ccc(F)cc3)c2)[C@@H](c2cc(F)ccc2F)O1 [Example 279]
59 | > 1000 nM | O=C1N[C@H](c2cncc(C#Cc3cccc(Cl)c3)c2)[C@@H](c2cccc(F)c2F)O1 [Example 280]
60 | > 1000 nM | O=C1N[C@H](c2cncc(C#Cc3cccc(Cl)c3)c2)[C@@H](c2c(F)cccc2F)O1 [Example 281]
61 | < 100 nM | O=C1N[C@H](c2cncc(C#Cc3ccccc3F)c2)[C@@H](c2cc(F)ccc2F)O1 [Example 282]
62 | < 100 nM | O=C1N[C@H](c2cncc(C#Cc3cccc(F)c3)c2)[C@@H](c2cc(F)ccc2F)O1 [Example 283]
63 | < 100 nM | O=C1N[C@H](c2cncc(C#Cc3ccccc3F)c2)[C@@H](c2cccc(F)c2F)O1 [Example 284]
64 | 100 to 1000 nM | O=C1N[C@H](c2cncc(C#Cc3cccc(F)c3)c2)[C@@H](c2cccc(F)c2F)O1 [Example 285]
65 | < 100 nM | O=C1N[C@H](c2cncc(C#Cc3ccc(F)cc3)c2)[C@@H](c2cccc(F)c2F)O1 [Example 286]
66 | 100 to 1000 nM | O=C1N[C@H](c2cncc(C#Cc3ccccc3Cl)c2)[C@@H](c2cccc(F)c2F)O1 [Example 287]
67 | 100 to 1000 nM | C[C@@]1(c2cc(F)ccc2F)OC(=O)N[C@H]1c1cncc(C#Cc2ccccc2)c1 [Example 288]
68 | < 100 nM | C[C@]1(c2cc(F)ccc2F)OC(=O)N[C@@H]1c1cncc(C#Cc2ccccc2)c1 [Example 289]
69 | > 1000 nM | C[C@@]1(c2cc(F)ccc2F)OC(=O)N[C@@H]1c1cncc(C#Cc2ccccc2)c1 [Example 290]
70 | 100 to 1000 nM | C[C@]1(c2cc(F)ccc2F)OC(=O)N[C@H]1c1cncc(C#Cc2ccccc2)c1 [Example 291]
71 | < 100 nM | O=C1N[C@H](c2cncc(C#Cc3ccccc3)c2)[C@@H](c2c(F)cc(F)cc2F)O1 [Example 292]
72 | > 1000 nM | O=C1N[C@H](c2cncc(C#Cc3ccccc3)c2)[C@@H](c2cc(F)cc(F)c2F)O1 [Example 293]
73 | < 100 nM and 2.7 nM | O=C1N[C@H](c2cncc(C#Cc3ccccc3)c2)[C@@H](c2ccc(F)c(F)c2F)O1 [Example 294]
74 | > 1000 nM | O=C1N[C@H](c2cncc(C#Cc3cnccn3)c2)[C@@H](c2c(F)cc(F)cc2F)O1 [Example 295]
75 | < 100 nM | O=C1N[C@H](c2cncc(C#Cc3cnccn3)c2)[C@@H](c2ccc(F)c(F)c2F)O1 [Example 296]
76 | < 100 nM | O=C1N[C@H](c2cc(C#Cc3ccccc3)cnc2F)[C@@H](c2cccc(F)c2)O1 [Example 299, (4R,5R)-4-(2-Fluoro-5-(phenylethynyl)pyridin-3-yl)-5-(3-fluorophenyl)oxazolidin-2-one]
77 | < 100 nM | COc1ncc(C#Cc2ccccc2)cc1[C@H]1NC(=O)O[C@@H]1c1cccc(F)c1 [Example 300, (4R,5R)-5-(3-Fluorophenyl)-4-(2-methoxy-5-(phenylethynyl)pyridin-3-yl)oxazolidin-2-one]
